Data: patent US20080145465A1, “Sesquiterpene lactone extract from artemisia leucodes for reducing inflammation and down-regulating pro-inflammatory gene expression” (priority 2006, published 2008)
“And” between values parts separate entries of the source, which are not always exact repeats. Identical values can stand only once.

Experiments:
COX-2 = biological target: T1, COX-2 (Ovis aries, UniProt P79208); test: Colorimetric COX inhibitor screening assay, COX-2; format: biochemical, ovine
T1 construct: purchased Cayman Chemical Company
T1 sequence (P79208 17-603): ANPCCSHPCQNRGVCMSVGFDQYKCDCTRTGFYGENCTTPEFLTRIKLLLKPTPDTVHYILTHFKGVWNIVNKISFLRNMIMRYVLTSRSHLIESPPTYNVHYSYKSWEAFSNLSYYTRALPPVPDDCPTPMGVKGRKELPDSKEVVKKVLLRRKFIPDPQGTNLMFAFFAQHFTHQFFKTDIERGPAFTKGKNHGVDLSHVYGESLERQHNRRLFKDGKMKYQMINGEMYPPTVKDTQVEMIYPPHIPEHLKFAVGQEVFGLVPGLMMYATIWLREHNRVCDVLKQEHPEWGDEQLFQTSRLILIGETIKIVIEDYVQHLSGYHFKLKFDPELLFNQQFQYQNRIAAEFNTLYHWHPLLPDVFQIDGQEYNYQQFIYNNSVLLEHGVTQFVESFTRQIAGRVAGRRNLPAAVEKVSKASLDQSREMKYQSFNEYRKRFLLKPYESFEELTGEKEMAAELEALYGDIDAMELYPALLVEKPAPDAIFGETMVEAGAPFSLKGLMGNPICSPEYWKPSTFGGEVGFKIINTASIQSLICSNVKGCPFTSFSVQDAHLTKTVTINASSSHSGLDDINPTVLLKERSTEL
Experimental: An ovine COX inhibitor screening assay (Cayman Chemical Company, Ann Arbor, Mich.) was used to measure inhibition of purified COX-1 and COX-2. This assay measures the peroxidase component of cyclooxygenases colorimetrically by monitoring the appearance of oxidized N,N,N′,N′-tetramethyl-p-phenylenediamine (TMPD) at 590 nm. Tablets of Vioxx (rofecoxib; Merck & Co., Inc., Whitehouse Station, N.J.) were ground and dissolved in methanol (1 mg/mL) to use as a positive control. AL-1, leukomisin, and austricin were also dissolved in methanol at 1 mg/mL. The assay was performed following manufacturer instructions. Vioxx, vehicle (100% initial activity), or treatments were added to a 96-well plate along with 180 μL assay mixture provided by the manufacturer containing 150 μL assay buffer, 10 μL heme, and 10 μL enzyme (COX-1 or COX-2). A background correction row received no enzyme and 10 μL additional assay buffer. After 5 min incubation at room temp, 20 μL of a colorimetric substrate solution containing TMPD and 20 μL arachadonic acid diluted in assay buffer were added to the plate. The plate was incubated for 5 min and the absorbance was read at 590 nm using a microplate reader (Molecular Devices, Sunnyvale, Calif.). To calculate percent inhibition, average absorbance was calculated for each sample (n=3). The background blank well absorbance was subtracted from each sample.
[(100% Initial activity-Blank)−(Treatment-Blank)/(100% Initial activity-Blank)]*100

[1] = test system: nitric oxide (NO) production from RAW macrophages; test: Griess assay for NO production by LPS-stimulated RAW macrophages; format: cell-based, murine; settings: at 10 μM; positive control
[2] = test system: cotton pellet infiltrate and granuloma in rats; test: Cotton granuloma test; format: in vivo; settings: 200 mg/kg oral
Experimental: Free access to standard rat chow and water was provided throughout the test. Three sterile cotton pellets (10 mg) were implanted hypodermically into the groin and abdominal area of rats under Nembutal (Sigma, St. Louis, Mo.) narcosis (40 mg/kg intraperitoneally). AL-1, aspirin (Sigma, St. Louis, Mo.), and vehicle control (5% ethanol) were administered by oral gavage one day before implantation, the day of implantation (1 hour before operation), and subsequently for six days after the surgery, once per day. On the seventh day after surgery, rats were euthanized by means of a large dose of Nembutal (70 mg/kg). Cotton pellets were removed and fresh weights were recorded. The cotton pellets were then were placed into an oven (60° C.) for 24 hours and weighed again.

[3] = test system: carrageenan-induced rat paw edema; test: Carrageenan-induced rat paw edema; format: in vivo, Wistar rats; settings: 200 mg/kg oral gavage, n = 5
Experimental: Groups of five adult male and female Wistar rats with body weights from 136 to 170 g were used for this study. Rats were housed five animals per cage in a room kept at 24-26° C. and fed ad libitum. Before the experiment began, rat paw sizes were recorded by measuring paw volume three times on each animal using a plethysmometer (Ugo Basile, Comerio VA, Italy). The values were averaged to give a baseline paw size value. To start the experiment, animals were given a subcutaneous injection of 1% carrageenan (100 μl; Sigma, St. Louis, Mo.) in the area of the back paw to induce an acute inflammatory reaction (paw edema). One hour after carrageenan injection, rats were orally gavaged with AL-1, aspirin, or vehicle control (5% ethanol). Paw size was measured at three hours and five hours after injection. The increase in paw edema at each time point was determined by comparison with paw volume measured pre-injection. Inhibition of edema was calculated by comparison with vehicle control at the same time point.

Row | SMILES | IC50 (COX-2) | NO production, % of control [1] | reduction of granuloma [2] | reduction of infiltrate [2] | granuloma (dry weight of pellet) ([2]; once per day, vehicle control 38 ± 7 mg) | infiltrate (wet weight of pellet) ([2]; once per day, vehicle control 139 ± 10 mg) | inhibition of paw edema vs vehicle control ([3]; 3 h after carrageenan) | inhibition of paw edema vs vehicle control ([3]; 5 h after carrageenan)
1 | CS(=O)(=O)c1ccc(C2=C(c3ccccc3)C(=O)OC2)cc1 [Vioxx, rofecoxib] | 40 µM | – | – | – | – | – | – | –
2 | CC(=O)Oc1ccccc1C(=O)O [aspirin] | – | 69 % of control | 44% | 34% | 21 ± 3 mg | 92 ± 12 mg | 53% and 53 ± 1 % | 56% and 56 ± 1 %
